Source: article PMC3658134 (Biochemistry, 2011)
Where two headings read alike, the source gives them in different places.

Experiments:
Format in all cases: biochemical
[1] = biological target: T1, Sec597Cys SmTGR (Schistosoma mansoni, UniProt Q962Y6); assay: Substrate specificity, NADPH consumption, Sec597Cys; details: 100 μM NADPH
[2] = biological target: T2, wild-type TGR (SmTGR) (Schistosoma mansoni, UniProt Q962Y6); assay: Substrate specificity, NADPH consumption, wild-type TGR
T2 sequence (Q962Y6 1-598): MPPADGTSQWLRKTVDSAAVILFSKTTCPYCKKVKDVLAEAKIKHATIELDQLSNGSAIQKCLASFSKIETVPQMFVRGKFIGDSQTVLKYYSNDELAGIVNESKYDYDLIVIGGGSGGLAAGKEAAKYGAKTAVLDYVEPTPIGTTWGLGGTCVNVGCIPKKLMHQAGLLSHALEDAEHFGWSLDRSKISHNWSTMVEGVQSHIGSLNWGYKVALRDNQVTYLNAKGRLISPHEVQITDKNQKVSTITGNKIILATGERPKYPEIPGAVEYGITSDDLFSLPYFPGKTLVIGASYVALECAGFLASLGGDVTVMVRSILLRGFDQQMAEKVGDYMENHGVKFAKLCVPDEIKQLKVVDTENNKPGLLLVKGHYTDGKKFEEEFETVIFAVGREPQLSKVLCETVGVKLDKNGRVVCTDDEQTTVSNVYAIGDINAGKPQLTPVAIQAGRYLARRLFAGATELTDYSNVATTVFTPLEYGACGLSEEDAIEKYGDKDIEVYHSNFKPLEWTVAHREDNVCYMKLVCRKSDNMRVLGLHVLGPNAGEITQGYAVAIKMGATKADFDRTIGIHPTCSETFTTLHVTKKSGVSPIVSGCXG

[3] = biological target: T3, WT SmTGR (Schistosoma mansoni, UniProt Q962Y6); assay: Inhibition of DTNB activity of WT SmTGR
[4] = biological target: T1, Sec597Cys SmTGR; assay: Inhibition of TrxR activity of Sec597Cys
[5] = biological target: T1, Sec597Cys SmTGR; assay: Inhibition of GR activity of Sec597Cys
[6] = biological target: T3, WT SmTGR; assay: Inhibition of TrxR activity of WT SmTGR
[7] = biological target: T1, Sec597Cys SmTGR; assay: Inhibition of DTNB activity of Sec597Cys
[8] = biological target: T3, WT SmTGR; assay: Inhibition of GR activity of WT SmTGR
[9] = Sec597Cys 100 or 150 nM, ND = undetectable activity
[10] = WT enzyme 20 or 100 nM, 100 μM NADPH, ND = undetectable activity

Compound: CC(C)(C)OO [t-Butyl-OOH, tert-butyl hydroperoxide]
- Km [1, 9]: 53 ± 5 mM
- Km [2, 10]: 75 ± 10 mM

Compound: O=C(O)CCCC[C@@H]1CCSS1 (racemic) [Lipoic acid, lipoic acid]
- Km [1, 9]: 9.3 ± 2.9 mM
- Km [2, 10]: 2.9 ± 0.7 mM

Compound: O=[Se](O)O [NaSeO3, sodium selenite]
- Km ([1]; Sec597Cys 100 nM): 0.0173 ± 0.0044 mM
- Km ([2]; WT enzyme 100 nM, 100 μM NADPH): 0.0087 ± 0.0025 mM

Compound: OO [H2O2, hydrogen peroxide]
- Km [1, 9]: 52.4 ± 9.8 mM
- Km [2]: 17.3 ± 7.6 mM
- Vmax ([2]; pH 7.4): 4.6 ± 0.7 s⁻¹

Compound: O=C1NC(=O)C(=O)C(=O)N1 [Alloxan, alloxan]
- Km [1, 9]: 0.88 ± 0.07 mM

Compound: N#Cc1c(-c2ccccc2)no[n+]1[O-] [Fx, 4-phenyl-1,2,5-oxadiazole-3-carbonitrile-2-oxide]
- IC50 [3]: 3 µM
- IC50 [4]: 2.1 µM
- IC50 [5]: 2.5 µM
- IC50 [6]: 5.4 µM
- IC50 [7]: 6 µM
- IC50 [8]: 3.2 µM
